Measured values taken from patent publication US5476944A, “Derivatives of cyclic phenolic thioethers” (G. D. Searle & Co., priority 1994, dated 1995).

Assays:
COX-I = target: T1, COX-I (Homo sapiens, UniProt P23219); assay: Human Enzyme Assay, recombinant COX-I (PGE2 ELISA); format: biochemical
T1 construct: made in house; host or cells: SF9 insect cells, recombinant baculovirus (pVL1393); coding fragment from Cayman Chemical
Experimental: (§1) The compounds of the invention are evaluated with respect to COX-I and COX-II activity in vitro using an enzyme based assay according to the following assay procedure.
(§2) (a) Preparation of Recombinant COX Baculoviruses
(§3) A 2.0 kb fragment containing the coding region for either human or murine COX-I (Caymen Chemical, Ann Arbor, Mich.), or human or murine COX-II (Caymen Chemical, Ann Arbor, Mich.), was cloned into a BamH1 site of the baculovirus transfer vector pVL1393 (Invitrogen, Palo Alto, Calif.) to generate a baculovirus transfer vector. Recombinant baculoviruses were isolated by transfecting 4 μg of baculovirus transfer vector DNA into SF9 cells (2×10e8) (Invitrogen, Palo Alto, Calif.) along with 200 ng of linearized bacium by the phosphate method. See M. D. Summers et al., "A Manual of Methods for Baculovirus Vectors and Insect Cell Culture Procedure," TEXAS AGRICULTURE EXPERIMENTAL STATION BULLETIN, No. 1555 (1987), which is incorporated herein by reference. Recombinant viruses were purified by three rounds of plaque purification, and high titer (10e7-10e8 pfu/ml) stocks of virus were prepared. For large scale production, SF9 insect cells (Invitrogen, Palo Alto, Calif.) were infected in 10 liter fermentors (0.5×10^6 /ml) with the recombinant baculovirus stock, such that the multiplicity of infection was 0.1. After 72 hours, the cells were centrifuged and the cell pellet was homogenized in Tris/Sucrose (50 mM: 25%, pH 8.0) containing 1% CHAPS. The homogenate was centrifuged at 10,000×G for 30 minutes, and the resultant supernatant was stored at -80° C. before being assayed for COX activity.
(§4) b. Assay for COX-I and COX-II activity:
(§5) COX activity was assayed as PGE2 formed/μg protein/time using an ELISA (Caymen Chemical, Ann Arbor, Mich.) to detect the prostaglandin E2 released. CHAPS-solubilized insect cell membranes containing the appropriate COX enzyme were incubated in a potassium phosphate buffer (50 mM, pH 8.0) containing phenol (0.5 mM), and heme (1 μM) with the addition of arachidonic acid (10 μM). Compounds of the present invention were pre-incubated with the enzyme for 10-20 minutes prior to the addition of the COX-I and COX-II enzyme substrate arachidonic acid (10 μM). Any reaction between the arachidonic acid and the enzyme was stopped after ten minutes at 37° C./room temperature by transferring 40 μl of reaction mix into […] ELISA buffer and 25 μM indomethacin. The PGE2 formed was measured by standard ELISA technology (Cayman Chemical, Ann Arbor, Mich.).
(§6) The results for this assay, as well as for the next assay (COX-II Cell Fibroblast Assay) are expressed in terms of COX-I or II activity as an IC50 value (50% inhibitory concentration), as defined as the amount of prostaglandin E2 (PGE2) formed per protein per time in response to the enzyme substrate arachidonic acid.

cellular COX-II = target: T2, cellular COX-II (Homo sapiens, UniProt P35354); assay: Cellular COX-II Assay (Cell Fibroblast Assay), IL-1 stimulated human fetal dermal fibroblasts, PGE2; format: cell-based; details: IL-1 beta stimulated human fetal dermal fibroblasts
T2 construct: stimulated human fetal dermal fibroblasts (HFDF, derived from primary cell cultures); endogenous in cells; host or cells: human fetal dermal fibroblasts (HFDF), primary, stimulated with IL-1 beta
T2 sequence (P35354 18-604): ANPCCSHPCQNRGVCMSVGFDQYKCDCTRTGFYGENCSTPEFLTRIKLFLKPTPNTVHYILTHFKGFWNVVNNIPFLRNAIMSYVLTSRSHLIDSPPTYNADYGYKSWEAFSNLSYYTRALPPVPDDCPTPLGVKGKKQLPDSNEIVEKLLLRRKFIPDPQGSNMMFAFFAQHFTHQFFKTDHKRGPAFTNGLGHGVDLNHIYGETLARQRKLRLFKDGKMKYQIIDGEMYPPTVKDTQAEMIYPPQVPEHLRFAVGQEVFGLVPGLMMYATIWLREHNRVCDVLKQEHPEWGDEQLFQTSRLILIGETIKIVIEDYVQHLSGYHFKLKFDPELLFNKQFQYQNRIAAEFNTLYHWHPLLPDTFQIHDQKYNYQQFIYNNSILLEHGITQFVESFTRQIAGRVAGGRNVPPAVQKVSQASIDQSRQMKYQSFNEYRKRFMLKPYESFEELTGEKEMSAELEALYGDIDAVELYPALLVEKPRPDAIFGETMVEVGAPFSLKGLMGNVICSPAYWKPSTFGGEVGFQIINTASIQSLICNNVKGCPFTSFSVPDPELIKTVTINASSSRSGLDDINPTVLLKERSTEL
Experimental: The compounds of the invention are evaluated with respect to the inhibition of cellular COX-II in vitro according to the following Cellular COX-II Assay (Cell Fibroblast Assay).
Cellular COX-II Assay (Cell Fibroblast Assay)
Inhibition of cellular COX-II by test compounds is determined using stimulated human fetal dermal fibroblasts (HFDF, derived from primary cell cultures). Fibroblasts are cultured in microtiter wells at 1.5×10^4 cells/well in Dulbecco's Modified Eagle's Media (DMEM)(Gibco/BRL, Gaithersburg, Md. Sigma Chemical Co., St. Louis, Mo.) containing 4500 mg glucose/L, 100 units penicillin G/ml and 0.1 mg streptomycin/ml, 4 mM L-glutamine, 25 mM Hepes and 10% Fetal Bovine Serum (Gibco/BRL, Gaithersburg, Md. Bioproducts For Science, Inc., Indianapolis,Ind.). Following a 3-day incubation at 37° C., the culture media is removed by aspiration using low vacuum, and the cells are stimulated overnight with medium containing human recombinant IL-1 (interleukin-1) beta (1 ng/ml)(Cistron, Pine Brook, N.J.). The next day, the fibroblasts are washed with Phosphate Buffered Saline, and 185 μl of DMEM is added to each well. The cells are placed in a 37° C. incubator for 15 minutes. Compounds are then added to the cells using seven half-log dilutions in duplicate determinations. Cells are incubated with test compounds at 37° C. for 30 minutes. The COX-II substrate arachidonic acid (20 μM; Nu-Chek-Prep Inc., Elysian, Minn.) is then added to the cell cultures and the plates are incubated for 10 minutes at 37° C. Supernatants are collected and Prostaglandin E2 (PGE2) production is measured by an enzyme-linked immunosorbent assay (ELISA; antibodies produced by Cayman Chemical Company, Ann Arbor, Mich.). […] PG,60
The following is a description of how the activities of the compounds of the present invention may be determined.
A run of this assay consists of one (or more) plates, each containing, along with the standard (in row A), (1) two wells of unstimulated material (in col. 12), (2) five wells of stimulated material (in col. 12), (3) seven wells (one per concentration) for indomethacin (in col. 11), and (4) two wells at each of seven concentrations for five test compounds, one of which is a repeat of indomethacin. The response (ng/ml Eicosanoid) is estimated from the Standard curve and is highest at low concentrations and decreases as the concentration increases. If the response is plotted on the y-axis and the log of the concentration is plotted on the x-axis, the dose-response pattern for these assays is typically a symmetrical, sigmoidal shaped curve. If a full range of concentrations is used, the complete sigmoidal curve may be seen, starting with an upper asymptote, falling at some degree of steepness, and then leveling off at a lower asymptote. The IC50 is defined as the concentration corresponding to a response midway between the upper and lower plateaus. A theoretic "dose-response" model is used to estimate the IC50.
The procedure described below was used to define the minimum and maximum responses for the compounds on a plate.
The procedure uses information for indomethacin and the rest of the plate in defining the minimum and maximum response. The justification for doing this is as follows. Enough runs have been done with indomethacin to determine and use a range of concentrations such that the response to the lowest concentrations is on the upper plateau of the sigmoidal curve and the response to the highest concentrations is on the lower plateau of the sigmoidal curve. For the other compounds, if a response is measured which is less than the response for the unstimulated wells, then this response may be considered to be another estimate of a minimal response. Likewise, if a response is measured which is greater than the response for the stimulated wells, then this response may be considered to be another estimate of a maximal response. Based on this reasoning, the minimum is estimated as follows: […]

COX-II = target: T3, COX-II (Homo sapiens, UniProt P35354); assay: Human Enzyme Assay, recombinant COX-II (PGE2 ELISA); format: biochemical
T3 construct: made in house; host or cells: SF9 insect cells, recombinant baculovirus (pVL1393); coding fragment from Cayman Chemical
T3 sequence (P35354 18-604): T2 sequence (P35354 18-604)
Experimental: as §1, §2, §3, §4, §5, §6

T1 sequence (P23219 24-599): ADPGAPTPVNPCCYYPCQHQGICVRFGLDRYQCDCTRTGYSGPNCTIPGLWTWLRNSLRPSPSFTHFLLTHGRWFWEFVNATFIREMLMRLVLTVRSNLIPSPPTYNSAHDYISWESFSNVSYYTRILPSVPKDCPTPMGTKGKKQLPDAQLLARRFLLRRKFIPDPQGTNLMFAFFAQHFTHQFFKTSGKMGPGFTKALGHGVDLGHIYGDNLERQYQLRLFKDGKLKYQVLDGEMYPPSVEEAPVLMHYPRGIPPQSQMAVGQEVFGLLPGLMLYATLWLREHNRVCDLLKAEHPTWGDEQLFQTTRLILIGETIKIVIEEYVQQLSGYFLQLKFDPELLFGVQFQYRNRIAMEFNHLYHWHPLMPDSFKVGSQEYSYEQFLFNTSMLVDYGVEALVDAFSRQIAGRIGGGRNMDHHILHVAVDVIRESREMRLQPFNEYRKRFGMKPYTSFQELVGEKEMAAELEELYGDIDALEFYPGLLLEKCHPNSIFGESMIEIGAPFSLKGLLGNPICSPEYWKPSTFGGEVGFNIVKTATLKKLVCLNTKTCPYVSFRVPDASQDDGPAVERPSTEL

Row | IC50 (COX-I) [nM] | IC50 (cellular COX-II) [nM] | IC50 (COX-II) [nM] | SMILES
1 | 28500 | 602 | 937 | CC(C)(C)c1ccc(S[C@H]2CCC[C@H]2OCC(=O)O)c(C(C)(C)C)c1 (racemic) [Example 80, (±)cis-2-[[2-[[2,4-bis(1,1-dimethylethyl)phenyl]thio]cyclopentyl]oxy]acetic acid]
2 | 94600 | 438 | 1430 | CC(C)(C)c1ccc(S[C@@H]2CCC[C@H]2OCC(=O)O)c(C(C)(C)C)c1 (racemic) [Example 81, (±)trans-2-[[2-[[2,4-bis(1,1-dimethylethyl)phenyl]-thio]cyclopentyl]oxy]acetic acid]
3 | > 100000 | 5590 | > 100000 | CC(C)(C)c1cc(S[C@@H]2CCC[C@H]2OCC(=O)O)cc(C(C)(C)C)c1 (relative stereo) [Example 76, (±)trans-2-[[2-[[3,5-bis(1,1-dimethylethyl)phenyl]thio]cyclopentyl]oxy]acetic acid]
4 | > 100000 | 170 | 5160 | CC(C)(C)c1cc(S[C@H]2CCC[C@H]2OCC(=O)O)cc(C(C)(C)C)c1 (relative stereo) [Example 77]
5 | > 100000 | 840 | > 100000 | CC(C)(C)c1ccc(O[C@@H]2CCC[C@H]2OCC(=O)O)c(C(C)(C)C)c1 (relative stereo) [Example 101, trans-2-[[2-[2,4-bis(1,1-dimethylethyl)phenoxy]cyclopentyl]oxy]acetic acid]
6 | > 100000 | 420 | 3700 | CC(C)(C)c1cc(S[C@H]2CCC[C@H]2OCC(=O)O)cc(C(C)(C)C)c1 (single isomer, unassigned) [Example 84, (+)cis-2-[[2-[[3,5-bis(1,1-dimethylethyl)phenyl]thio]cyclopentyl]oxy]aceticacid]
7 | – | 163 | 2500 | CC(C)(C)c1cc(S[C@H]2CCC[C@H]2OCC(=O)O)cc(C(C)(C)C)c1 (single isomer, unassigned) [Example 85, (-)cis-2-[[2-[[3,5-bis(1,1-dimethylethyl)phenyl]thio]cyclopentyl]oxy]aceticacid]
8 | > 100000 | 576 | 3400 | CC(C)(C)c1cc(S[C@@H]2CCCC[C@H]2OCC(=O)O)cc(C(C)(C)C)c1 (single isomer, unassigned) [Example 89, (-)trans-2-[[2-[[3,5-bis(1,1-dimethylethyl)phenyl]thio]cyclohexyl]oxy]acetic acid]
9 | > 100000 | 246 | 3880 | CC(C)(C)c1ccc(S[C@@H]2CCC[C@H]2OCC(=O)O)c(C(C)(C)C)c1 (single isomer, unassigned) [Example 92, (+)trans-2-[[2-[[2,4-bis(1,1-dimethylethyl)phenyl]thio]cyclopentyl]oxy]acetic acid]
10 | > 100000 | 334 | 7660 | CC(C)(C)c1ccc(S[C@@H]2CCC[C@H]2OCC(=O)O)c(C(C)(C)C)c1 (single isomer, unassigned) [Example 93, (-)trans-2-[[2-[[2,4-bis(1,1-dimethylethyl)phenyl]thio]cyclopentyl]oxy]acetic acid]
11 | 92100 | 227 | 2000 | CC(C)(C)c1ccc(S[C@H]2CCC[C@H]2OCC(=O)O)c(C(C)(C)C)c1 (single isomer, unassigned) [Example 97, (-)cis-2-[[2-[[2,4-bis(1,1-dimethylethyl)phenyl]thio]cyclopentyl]oxy]aceticacid]
